The results in this text go back to paper PMC11129182, “Development of Inhibitors, Probes, and PROTAC Provides a Complete Toolbox to Study PARK7 in the Living Cell” (Journal of Medicinal Chemistry, 2024).

For experiment [1], the target named is reactive cysteine sites of other proteins in A549 cells (Homo sapiens, UniProt P40222). The note with it: 4 h, P40222_C87 Alpha-taxilin. The source says:
(§1) Further, the samples were digested with tosylsulfonyl phenylalanyl chloromethyl ketone (TPCK)-treated trypsin and endoGluC to increase the coverage of protein sequences, especially the PARK7 peptide containing Cys106 residue. Peptides generated by digestion from replicates of each sample were labeled using TMT16-plex to perform tandem mass tag (TMT)-based quantitative proteomics profiling. Following the TMT labeling, all samples were pooled and the peptides conjugated to the DBIA probe were enriched by streptavidin beads and analyzed by LC-MS/MS (Figure 3A). […] All cysteines were represented with the shortest peptide by using the average CR values of all the peptides with the same modified cysteine from the same protein in the same condition.[16],[27],[28]
(§2) A549 cells were seeded into 10 cm plates in 10 mL of media. […] The cells were then washed two times with cold PBS (1 mL per 10 cm plate) and collected by scraping them with a cell scraper. Cells were lysed by sonication in ice-cold PBS and centrifuged at 15,000 rpm for 2 min to remove cell debris. The BCA Gold protein assay (Thermo Fisher Scientific) was performed to determine protein concentration. Each sample (100 μg) was labeled with 500 μM DBIA probe for 1 h in the dark at room temperature (RT). Excess DBIA and disulfide bonds were quenched and reduced, respectively, using 5 mM dithiothreitol (DTT) for 30 min in the dark at RT. Reduced disulfide bonds were alkylated using 20 mM iodoacetamide for 30 min in the dark at RT. […] Digested peptides were labeled with TMTpro16-plex reagents (Thermo Fisher Scientific) in a 1:4 ratio by mass (peptides/TMT reagents) for 1 h at RT. Excess TMT reagent was quenched with 5 μL 6% hydroxylamine for 15 min at RT. All samples were then pooled and lyophilized.
(§3) Nonspecific binding peptides were washed away using the following procedure: 3 × 1 mL of PBS pH 7.4, 2 × 1 mL of PBS with 0.1% SDS pH 7.4, and 3 × 1 mL of HPLC-grade water. DBIA probe-containing peptides were eluted using 700 μL of 50% acetonitrile in 0.1% TFA, lyophilized using a Speedvac, and desalted using a handmade mini-SPE column (10% sorbent material of a Waters, OASIS 1 cm^3 HLB 30 mg cartridge). Column was equilibrated with 200 μL of 90% acetonitrile and 3 × 200 μL of 10 mM NH4HCO3 pH 8.4. The dried sample was dissolved in 200 μL of 10 mM NH4HCO3 pH 8.4, loaded onto the column, washed 3x with 200 μL of 10 mM NH4HCO3 pH 8.4, and eluted into 3 fractions with 150 μL of 10, 20, and 50% acetonitrile (in 10 mM NH4HCO3). Samples were then lyophilized.
(§4) 2.2.04 (www.matrixscience.com) for protein identification. Mascot searches were done with 10 ppm and 0.02 Da deviation for the precursor and fragment mass, respectively, and the enzymes trypsin and EndoGluC was specified, up to three missed cleavages were allowed. Methionine oxidation, acetyl (protein N-term), and DBIA on Cys were set as a variable modification. Carbamidomethyl on Cys and TMTpro on Lys and N-term were set as a fixed modification. Peptides with an FDR <1% were accepted. Peptides were only retained, if they were quantified and if there was exactly one DBIA modification on the peptide. The values for each TMT channel were normalized to the average of the values for the DMSO samples for the same peptide, and these values were named CR. For each peptide, the first entry of the Master Protein Accessions column was chosen as the Master Protein Accession, and the residue number of the cysteine modified by DBIA within the entire protein sequence was determined. Using this information, each peptide was assigned an identifier consisting of the Master Protein Accession and the residue number of the modified cysteine to assign each peptide to the respective modified cysteine residue. Within each replicate, CR values for all peptides with the same identifier (and thus the same modified cysteine residue) were combined by averaging and only the shortest Annotated Sequence was kept as the final Annotated Sequence.

For experiment [2], the target named is reactive cysteine sites of other proteins in A549 cells (Homo sapiens, UniProt Q13085). The note with it: 4 h, Q13085_C1297 Acetyl-CoA carboxylase 1.
Text: as §1, §2, §3, §4

The target in experiment [3] is reactive cysteine sites of other proteins in A549 cells (Homo sapiens, UniProt P04080). As to conditions: 4 h, P04080_C3 Cystatin-B.
Text: as §1, §2, §3, §4

Experiment [4] addresses T1, reactive cysteine sites of other proteins in A549 cells (Homo sapiens, UniProt O60664).
T1 sequence (O60664 1-434): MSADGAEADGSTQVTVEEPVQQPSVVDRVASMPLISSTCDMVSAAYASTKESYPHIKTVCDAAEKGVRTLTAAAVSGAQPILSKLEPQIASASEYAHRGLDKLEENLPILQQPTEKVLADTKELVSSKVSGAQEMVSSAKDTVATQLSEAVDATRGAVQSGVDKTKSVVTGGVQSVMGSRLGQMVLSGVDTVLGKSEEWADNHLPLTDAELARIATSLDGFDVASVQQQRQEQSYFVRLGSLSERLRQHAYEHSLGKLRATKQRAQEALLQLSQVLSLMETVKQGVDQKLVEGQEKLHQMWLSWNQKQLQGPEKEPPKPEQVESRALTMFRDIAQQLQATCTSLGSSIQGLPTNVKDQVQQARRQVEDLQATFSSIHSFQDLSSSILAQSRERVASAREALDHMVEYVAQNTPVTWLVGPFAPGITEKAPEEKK
As to conditions: 4 h, O60664_C39 Perilipin-3.
Text: as §1, §2, §3, §4

Where two headings read alike, the source gives them in different places.

reactive cysteine sites of other proteins in A549 cells (Homo sapiens, UniProt P40222), sequence (P40222 whole entry): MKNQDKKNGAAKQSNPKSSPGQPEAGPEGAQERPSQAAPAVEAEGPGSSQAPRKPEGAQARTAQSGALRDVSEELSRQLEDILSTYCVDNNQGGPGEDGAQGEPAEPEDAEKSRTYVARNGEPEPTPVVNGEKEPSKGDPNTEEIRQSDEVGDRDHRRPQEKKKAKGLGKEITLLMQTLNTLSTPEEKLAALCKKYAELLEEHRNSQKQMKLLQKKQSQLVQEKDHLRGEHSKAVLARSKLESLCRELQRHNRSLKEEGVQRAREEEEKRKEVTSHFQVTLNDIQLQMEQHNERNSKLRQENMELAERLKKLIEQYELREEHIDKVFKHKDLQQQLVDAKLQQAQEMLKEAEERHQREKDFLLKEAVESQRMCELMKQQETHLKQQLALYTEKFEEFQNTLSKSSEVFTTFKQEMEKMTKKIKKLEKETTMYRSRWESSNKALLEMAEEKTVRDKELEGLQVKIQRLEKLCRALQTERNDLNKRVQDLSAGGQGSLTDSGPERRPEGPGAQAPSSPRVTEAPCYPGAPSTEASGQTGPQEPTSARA
reactive cysteine sites of other proteins in A549 cells (Homo sapiens, UniProt P04080), sequence (P04080 whole entry): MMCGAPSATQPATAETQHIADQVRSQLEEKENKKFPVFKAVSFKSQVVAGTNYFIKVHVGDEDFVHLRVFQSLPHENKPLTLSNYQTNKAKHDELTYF

In the case of `N#CN1CC[C@@H](C(=O)Nc2nc3c(s2)CN(C(=O)c2cc(-n4ccnn4)ccc2F)CC3)C1` [Compound 84, (R)-1-Cyano-N-(5-(2-fluoro-5-(1H-1,2,3-triazol-1-yl)benzoyl)-4,5,6,7-tetrahydrothiazolo[5,4-c]pyridin-2-yl)pyrrolidine-3-carboxamide], the “Average log2 CR (DMSO/inhibitor)” value in experiment [1] (A549, 0.5 µM) was 0.7392; in experiment [1] (A549, 5 µM), 1.414; in experiment [2] (A549, 0.5 µM), 0.6874; in experiment [2] (A549, 5 µM), 1.886; in experiment [3] (A549, 0.5 µM), 0.9051; in experiment [3] (A549, 5 µM) it was 1.676. Besides, the “Average log2 CR (DMSO/inhibitor)” value worked out at 0.4419 in experiment [4] (A549, 0.5 µM) and 1.439 in experiment [4] (A549, 5 µM).
